Earlier results as cited in patent US20250049902A1, “Method of Developing a Peptide-Based Vaccine Conjugated with 1V209” (VERSITECH LIMITED, priority 2021, published 2025).

Legend:
TLR7 pathway = details: reported, ref [3]
[1] = tested on: antigen specific immune responses; details: small molecule simply mixed with antigens, ref [3]

COCCOc1nc(N)c2[nH]c(=O)n(Cc3ccc(C(=O)O)cc3)c2n1 [1V209, 4-[[6-Amino-7,8-dihydro-2-(2-methoxyethoxy)-8-oxo-9H-purin-9-yl]methyl]-benzoic acid]
TLR7 pathway stimulation (TLR7 pathway): can stimulate the TLR7 pathway as an agonist | induction of antigen specific immune responses [1]: can hardly induce antigen specific immune responses
